Values quoted from earlier work as cited in patent US4639511A, “Des-19-leucine-calcitonin analogs” (Armour Pharmaceutical Company, priority 1985, dated 1987).
Positions of bridges follow the written chain, without caps; N, C: chain ends. No end group written: not given here.

Tests used:
[1] = literature values, Monikawa et al.
[2] = tested on: serum calcium concentration; details: standard used in the rat assay

| Substance | hypocalcemic potency [1] | potency of the standard salmon calcitonin, independently determined [2] |
| --- | --- | --- |
| (1,7-α-L-aminosuberic acid)eel calcitonin | about 3400 IU/mg. |  |
| eel calcitonin (CSNLSTCVLGKLSQELHKLQTYPRTDVGAGTP-NH2; disulfide 1-7; ends not checked; UniProt P01262 1-32, looked up) [synthetic eel calcitonin, synthetic eel calcitonin from Monikawa et al] | around 4300 IU/mg. |  |
| salmon calcitonin [standard salmon calcitonin] |  | greater than 4,000 IU/mg |
